# Source: US6265423A, “Aromatic polycyclic retinoid-type derivatives, method for preparing same, and use thereof for making pharmaceutical and cosmetic compositions” (priority 1996, dated 2001)
# Legend:
# Type in all cases: cell-based
# RARβ-ERcassette = test: Transactivation, chimerical receptor RARβ-ERcassette (HeLa); settings: TTNPB 10^-8 M = 100
# Procedure, shortened: (§1)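 Chimeric RAR-ERcassette receptors (AF-1/AF-2 retained, ER DNA-binding domain) drive ERE-controlled luciferase in HeLa cells, with β-galactosidase normalising transfection. Cells, transfected by calcium phosphate co-precipitation, received test effectors for 16 h starting 24 h after transfection.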
# [1] = tested on: RAR-ERcassettes (RARα, RARβ, RARγ); test: Chimerical receptors RAR-ERcassettes, overall profile
# Procedure, shortened: as §1
# [2] = tested on: human mammary tumoral lineage T-47D; test: Clonogenic test (soft agar), growth of cellular colonies; settings: T-47D
# Procedure, shortened: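 Colony counts (clones over 100 μm², MTT-stained for at least 3 h) are expressed as a percentage of the untreated control. T-47D cells grew anchorage-independently between a 0.5% agar base and a 0.3% agar top layer. Cultures were incubated for 21 days after treatment at 37 °C with 5% CO2.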
# [3] = tested on: T-47D human mammary cancer cells; test: MTT test, proliferation of T-47D; settings: Homo sapiens, T47D, T-47D, 72 h, control = 100%, read-out: level of proliferation
# Procedure, shortened: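 Cells grown at 37° C in MEM/5% FCS were plated for 24 h, then treated at 10^-8, 10^-6 or 10^-4 M. Each condition was run in 6 duplicates.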
smiles,measurement,setting,value
"C/C(=C/c1ccc2c(c1)C(C)(C)CCC2(C)C)c1ccc(C(=O)O)cn1 [CB38416, (Z) 2-[1-(5,6,7,8-tetrahydro-5,5,8,8-tetramethyl-2-naphthalenyl)-2-propenyl]pyridinyl-5-carboxylic acid]",RAR-ERcassette RARβ transactivation,RARβ-ERcassette; 10^-6 M,198%
same,RAR-ERcassette RARβ transactivation,RARβ-ERcassette; 10^-7 M,57%
same,RAR-ERcassette RARβ transactivation,RARβ-ERcassette; 10^-8 M,10%
same,RAR-ERcassette profile (in words),[1],induce a transactivation mediated by the three receptors
same,activity at 0.1 µM,"[2]; Homo sapiens, T47D, 504 h, 10^-7 M, 21 days, control = 100%, read-out: mean number of cellular colonies in relation to control",11.6 ± 1.9%
same,activity at 0.01 µM,"[2]; Homo sapiens, T47D, 504 h, 10^-8 M, 21 days, control = 100%, read-out: mean number of cellular colonies in relation to control",15.3 ± 1.7%
same,activity at 0.001 µM,"[2]; Homo sapiens, T47D, 504 h, 10^-9 M, 21 days, control = 100%, read-out: mean number of cellular colonies in relation to control",20 ± 0.2%
same,effect on growth of cellular colonies (in words),[2]; soft agar,as active as the reference products CB13407 (9-cis RA) and LGD1069
same,activity at 100 µM,[3]; 10^-4 M,42.5%
same,activity at 1 µM,[3]; 10^-6 M,82.6%
same,activity at 0.01 µM,[3]; 10^-8 M,119%
